Data reported in patent publication US20130102593A1, “PYRROLIDINE COMPOUNDS WHICH INHIBIT BETA-SECRETASE ACTIVITY AND METHODS OF USE THEREOF” (priority 2008, published 2013).

Tested on: Aβ production
Test: Cellular Aβ IC50 determination (memapsin 2 activity in a cellular assay of Aβ production)
Format: cell-based, Chinese hamster
Conditions: Cricetulus griseus; Chinese hamster ovary cells over-expressing human APP695 with London and Swedish mutations, 24 h, Aβ40 sandwich ELISA; read-out: M2 IC50
Procedure: The potency of compounds against memapsin 2 activity was determined in a cellular assay of Aβ production. […] Chinese hamster ovary cells that over-express human APP695 with the London and Swedish mutations were seeded in multi-well plates at 10% confluency. Compounds are dissolved in DMSO to concentrations near 1 mM, and diluted into culture media to a final concentration near 4 μM (final 0.4% DMSO). Compounds were diluted serially and applied to cells in multi-well plates 48 h after seeding. Incubation was continued in 5% CO2 at 37° C. for 24 h. Aliquots were removed and assayed for […] content using a sandwich ELISA (BioSource International). Amount of Aβ40 over the range of concentration of compounds, relative to control incubations, were fit to a 4-parameter IC50 model.

SMILES	IC50
Cc1csc([C@H]2CCCN2C(=O)c2cc(F)cc(C(=O)N[C@@H](Cc3ccccc3)[C@H](O)[C@H]3CCCN3)c2)n1 [1-32, 3-fluoro-N-((1R,2S)-1-hydroxy-3-phenyl-1-((R)-pyrrolidin-2-yl)propan-2-yl)-5-((R)-2-(4-methylthiazol-2-yl)pyrrolidine-1-carbonyl)benzamide]	> 1000 nM
Cc1csc([C@H]2CCCN2C(=O)c2cc(C(=O)N[C@@H](Cc3ccccc3)[C@H](O)[C@H]3CCCN3)cc(N3CCOCC3)c2)n1 [1-33, N-((1R,2S)-1-hydroxy-3-phenyl-1-((R)-pyrrolidin-2-yl)propan-2-yl)-3-((R)-2-(4-methylthiazol-2-yl)pyrrolidine-1-carbonyl)-5-morpholinobenzamide]	> 1000 nM
COc1cc(C(=O)N[C@@H](Cc2ccccc2)[C@H](O)[C@H]2CCCN2)cc(C(=O)N2CCC[C@@H]2c2nc(C)cs2)c1 [1-34, N-((1R,2S)-1-hydroxy-3-phenyl-1-((R)-pyrrolidin-2-yl)propan-2-yl)-3-methoxy-5-((R)-2-(4-methylthiazol-2-yl)pyrrolidine-1-carbonyl)benzamide]	> 1000 nM
Cc1csc([C@H]2CCCN2C(=O)c2cc(CF)cc(C(=O)N[C@@H](Cc3ccccc3)[C@H](O)[C@H]3C[C@@H](OCc4ccccc4)CN3)c2)n1 [1-36, N-((1R,2S)-1-((2R,4R)-4-(benzyloxy)pyrrolidin-2-yl)-1-hydroxy-3-phenylpropan-2-yl)-3-(fluoromethyl)-5-((R)-2-(4-methylthiazol-2-yl)pyrrolidine-1-carbonyl)benzamide]	< 500 nM
Cc1csc([C@H]2CCCN2C(=O)c2cc(C(=O)N[C@@H](Cc3ccccc3)[C@H](O)[C@H]3CCCN3)cc(N3CCCC3=O)c2)n1 [1-39, N-((1R,2S)-1-hydroxy-3-phenyl-1-((R)-pyrrolidin-2-yl)propan-2-yl)-3-((R)-2-(4-methylthiazol-2-yl)pyrrolidine-1-carbonyl)-5-(2-oxopyrrolidin-1-yl)benzamide]	< 500 nM
Cc1csc([C@H]2CCCN2C(=O)c2cccc(C(=O)N[C@@H](Cc3ccccc3)[C@H](O)[C@H]3CCCN3)c2)n1 [1-40, N-((1R,2S)-1-hydroxy-3-phenyl-1-((R)-pyrrolidin-2-yl)propan-2-yl)-3-((R)-2-(4-methylthiazol-2-yl)pyrrolidine-1-carbonyl)benzamide]	500 to 1000 nM
Cc1csc(CN(C)C(=O)c2cccc(C(=O)N[C@@H](Cc3cc(F)cc(F)c3)[C@H](O)[C@H]3CCCN3)c2)n1 [1-41, N1-((1R,2S)-3-(3,5-difluorophenyl)-1-hydroxy-1-((R)-pyrrolidin-2-yl)propan-2-yl)-N3-methyl-N3-((4-methylthiazol-2-yl)methyl)isophthalamide]	> 1000 nM
Cc1csc([C@H]2CCCN2C(=O)c2cc(C(=O)N[C@@H](Cc3ccccc3)[C@H](O)[C@H]3CCCN3)cc(N(C)C)c2)n1 [1-42, 3-(dimethylamino)-N-((1R,2S)-1-hydroxy-3-phenyl-1-((R)-pyrrolidin-2-yl)propan-2-yl)-5-((R)-2-(4-methylthiazol-2-yl)pyrrolidine-1-carbonyl)benzamide]	> 1000 nM
Cc1csc([C@H]2CCCN2C(=O)c2cc(C(=O)N[C@@H](Cc3ccccc3)[C@H](O)[C@H]3CCCN3)cc(-c3cccc(C(F)(F)F)c3)c2)n1 [1-43, N-((1R,2S)-1-hydroxy-3-phenyl-1-((R)-pyrrolidin-2-yl)propan-2-yl)-5-((R)-2-(4-methylthiazol-2-yl)pyrrolidine-1-carbonyl)-3′-(trifluoromethyl)biphenyl-3-carboxamide]	> 1000 nM
Cc1csc([C@H]2CCCN2C(=O)c2cccc(C(=O)N[C@@H](Cc3cc(F)cc(F)c3)[C@H](O)[C@H]3CCCN3)c2)n1 [1-44, N-((1R,2S)-3-(3,5-difluorophenyl)-1-hydroxy-1-((R)-pyrrolidin-2-yl)propan-2-yl)-3-((R)-2-(4-methylthiazol-2-yl)pyrrolidine-1-carbonyl)benzamide]	500 to 1000 nM
Cc1csc([C@H]2CCCN2C(=O)c2cc(CF)cc(C(=O)N[C@H](Cc3ccccc3)[C@H](O)[C@H]3C[C@@H](OCc4ccccc4)CN3)c2)n1 [1-45, N-((1R,2R)-1-((2R,4R)-4-(benzyloxy)pyrrolidin-2-yl)-1-hydroxy-3-phenylpropan-2-yl)-3-(fluoromethyl)-5-((R)-2-(4-methylthiazol-2-yl)pyrrolidine-1-carbonyl)benzamide]	> 1000 nM
Cc1csc([C@H]2CCCN2C(=O)c2cc(C(=O)N[C@@H](Cc3ccccc3)[C@H](O)[C@H]3CCCN3)cc(N3CCC(F)(F)CC3)c2)n1 [1-46, 3-(4,4-difluoropiperidin-1-yl)-N-((1R,2S)-1-hydroxy-3-phenyl-1-((R)-pyrrolidin-2-yl)propan-2-yl)-5-((R)-2-(4-methylthiazol-2-yl)pyrrolidine-1-carbonyl)benzamide]	500 to 1000 nM
Cc1csc([C@H]2CCCN2C(=O)c2cccc(C(=O)N[C@@H](Cc3ccccc3)[C@H](O)[C@H]3C[C@H](F)CN3)c2)n1 [1-47, N-((1R,2S)-1-((2R,4S)-4-fluoropyrrolidin-2-yl)-1-hydroxy-3-phenylpropan-2-yl)-3-((R)-2-(4-methylthiazol-2-yl)pyrrolidine-1-carbonyl)benzamide]	> 1000 nM
Cc1csc([C@H]2CCCN2C(=O)c2cccc(C(=O)N[C@@H](Cc3ccccc3)[C@H](O)[C@@H]3CCCN3)c2)n1 [1-48, N-((1R,2S)-1-hydroxy-3-phenyl-1-((S)-pyrrolidin-2-yl)propan-2-yl)-3-((R)-2-(4-methylthiazol-2-yl)pyrrolidine-1-carbonyl)benzamide]	> 1000 nM
Cc1csc([C@H]2CCCN2C(=O)c2cc(C(=O)N[C@@H](Cc3cc(F)cc(F)c3)[C@H](O)[C@H]3CCCN3)cc(-c3ncco3)c2)n1 [1-49, N-((1R,2S)-3-(3,5-difluorophenyl)-1-hydroxy-1((R)-pyrrolidin-2-yl)propan-2-yl)-3-((R)-2-(4-methylthiazol-2-yl)pyrrolidine-1-carbonyl)-5-(oxazol-2-yl)benzamide]	< 500 nM

Further lines, results first:

IC50	SMILES
> 1000 nM	Cc1csc([C@H]2CCCN2C(=O)c2cc(C(=O)N[C@@H](Cc3ccccc3)[C@H](O)[C@H]3CCCN3)cc(C3CC3)c2)n1 [1-50, 3-cyclopropyl-N-((1R,2S)-1-hydroxy-3-phenyl-1-((R)-pyrrolidin-2-yl)propan-2-yl)-5-((R)-2-(4-methylthiazol-2-yl)pyrrolidine-1-carbonyl)benzamide]
> 1000 nM	Cc1csc([C@H]2CCCN2C(=O)c2cccc(C(=O)N[C@@H](Cc3ccccc3)[C@H](O)[C@H]3CC[C@@H](C)N3)c2)n1 [1-51, N-((1R,2S)-1-hydroxy-1-((2R,5R)-5-methylpyrrolidin-2-yl)-3-phenylpropan-2-yl)-3-((R)-2-(4-methylthiazol-2-yl)pyrrolidine-1-carbonyl)benzamide]
< 500 nM	Cc1csc([C@H]2CCCN2C(=O)c2cc(C(=O)N[C@@H](Cc3ccccc3)[C@H](O)[C@H]3C[C@@H](OCc4ccccc4)CN3)cc(-c3ncco3)c2)n1 [1-52, N-((1R,2S)-1-((2R,4R)-4-(benzyloxy)pyrrolidin-2-yl)-1-hydroxy-3-phenylpropan-2-yl)-3-((R)-2-(4-methylthiazol-2-yl)pyrrolidine-1-carbonyl)-5-(oxazol-2-yl)benzamide]
500 to 1000 nM	Cc1csc([C@H]2CCCN2C(=O)c2cccc(C(=O)N[C@@H](Cc3cccc(F)c3)[C@H](O)[C@H]3CCCN3)c2)n1 [1-53, N-((1R,2S)-3-(3-fluorophenyl)-1-hydroxy-1-((R)-pyrrolidin-2-yl)propan-2-yl)-3-((R)-2-(4-methylthiazol-2-yl)pyrrolidine-1-carbonyl)benzamide]
< 500 nM	Cc1csc([C@H]2CCCN2C(=O)c2cncc(C(=O)N[C@@H](Cc3ccccc3)[C@H](O)CNCc3cc(Cl)nc(N(C)C)c3)c2)n1 [2-1, N-((2S,3R)-4-((2-chloro-6-(dimethylamino)pyridin-4-yl)methylamino)-3-hydroxy-1-phenylbutan-2-yl)-5-((R)-2-(4-methylthiazol-2-yl)pyrrolidine-1-carbonyl)nicotinamide, reference compound]
< 500 nM	Cc1csc([C@H]2CCCN2C(=O)c2cc(C(=O)N[C@@H](Cc3ccccc3)[C@H](O)CNCc3cncc(C(C)C)c3)cc(-c3ccco3)c2)n1 [2-2, 3-(furan-2-yl)-N-((2S,3R)-3-hydroxy-4-((5-isopropylpyridin-3-yl)methylamino)-1-phenylbutan-2-yl)-5-((R)-2-(4-methylthiazol-2-yl)pyrrolidine-1-carbonyl)benzamide, reference compound]
< 500 nM	Cc1cc(C(=O)N[C@@H](Cc2ccccc2)[C@H](O)CNCc2cncc(C(C)(C)C)c2)cc(C(=O)N2CCC[C@@H]2c2nc(C)co2)c1 [2-3, N-((2S,3R)-4-((5-tert-butylpyridin-3-yl)methylamino)-3-hydroxy-1-phenylbutan-2-yl)-3-methyl-5-((R)-2-(4-methyloxazol-2-yl)pyrrolidine-1-carbonyl)benzamide, reference compound]
< 500 nM	Cc1coc([C@H]2CCCN2C(=O)c2cccc(C(=O)N[C@@H](Cc3ccccc3)[C@H](O)CNCc3cncc(C(C)(C)C)c3)c2)n1 [2-4, N-((2S,3R)-4-((5-tert-butylpyridin-3-yl)methylamino)-3-hydroxy-1-phenylbutan-2-yl)-3-((R)-2-(4-methyloxazol-2-yl)pyrrolidine-1-carbonyl)benzamide, reference compound]
< 500 nM	CCn1cc(CNC[C@@H](O)[C@H](Cc2ccccc2)NC(=O)c2cc(C)cc(C(=O)N3CCC[C@@H]3c3nc(C)co3)c2)cn1 [2-5, N-((2S,3R)-4-((1-ethyl-1H-pyrazol-4-yl)methylamino)-3-hydroxy-1-phenylbutan-2-yl)-3-methyl-5-((R)-2-(4-methyloxazol-2-yl)pyrrolidine-1-carbonyl)benzamide, reference compound]
